We go through 16 compounds from PMC9437094, “Docking study, molecular dynamic, synthesis, anti-α-glucosidase assessment, and ADMET prediction of new benzimidazole-Schiff base derivatives” (Scientific Reports, 2022).

For data set [1], the target named is α-glucosidase from Saccharomyces cerevisiae (Saccharomyces cerevisiae, UniProt P53341). In words: biochemical. Format: biochemical. The note with it: for IC50: substrate p-nitrophenyl glucopyranoside, 37 °C. The procedure: Next, absorbance was measured at 405 nm by spectrophotometer (Gen5, Power wave xs2, BioTek, USA), and IC50 value for each tested compound was calculated by taking advantage of the nonlinear regression curve (logit method).

A further data set has as its system MCF-7. Put plainly: MTT cytotoxicity assay on MCF-7. The note with it: MCF-7 human cancer cell line, at 200 μM. Format: cell-based. A general note: Tetrazolium assays rely on reduction of a dye to a coloured formazan, in cell work by metabolically active cells.
In another data set the test system is HDF. Put plainly: MTT cytotoxicity assay on HDF. The format is cell-based. The note with it: HDF human normal cell line, at 200 μM.
A further data set has as its target α-glucosidase (Saccharomyces cerevisiae, UniProt P53341). In words: Enzyme kinetic study (Lineweaver–Burk and secondary plot). The format is biochemical. The method, then:
Furthermore, the plot of the Km versus different concentrations of compound 8p gave an estimate of Ki as the inhibition constant (Fig. 2b). Ki value for the latter compound was 60 µM.
A Lineweaver–Burk plot was generated to identify the type of inhibition and the Michaelis–Menten constant (Km) value was determined from plot between reciprocal of the substrate concentration (1/[S]) and reciprocal of enzyme rate (1/V) over various inhibitor concentrations. Experimental inhibitor constant (Ki) value was constructed by secondary plots of the inhibitor concentration [I] versus Km.

Each structure is given as a SMILES string. Like-named read-outs stand apart in the source and are kept apart here.

α-glucosidase from Saccharomyces cerevisiae, sequence (P53341 whole entry): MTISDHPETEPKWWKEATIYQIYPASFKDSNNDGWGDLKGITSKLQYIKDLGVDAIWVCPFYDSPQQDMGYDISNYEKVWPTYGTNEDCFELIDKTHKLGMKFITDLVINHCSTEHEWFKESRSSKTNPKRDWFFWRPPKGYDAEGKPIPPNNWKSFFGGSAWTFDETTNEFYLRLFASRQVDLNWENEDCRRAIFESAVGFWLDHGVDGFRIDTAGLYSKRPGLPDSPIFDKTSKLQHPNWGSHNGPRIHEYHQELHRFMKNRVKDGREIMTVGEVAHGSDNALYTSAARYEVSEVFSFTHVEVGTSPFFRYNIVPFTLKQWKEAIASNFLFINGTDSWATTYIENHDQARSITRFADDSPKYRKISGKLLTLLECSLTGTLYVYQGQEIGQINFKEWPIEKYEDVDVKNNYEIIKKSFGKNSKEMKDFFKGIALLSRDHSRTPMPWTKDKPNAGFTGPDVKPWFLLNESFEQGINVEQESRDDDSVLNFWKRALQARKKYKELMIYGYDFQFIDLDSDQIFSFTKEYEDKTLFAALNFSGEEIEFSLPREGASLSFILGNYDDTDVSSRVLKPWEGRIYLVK
α-glucosidase, sequence (P53341 whole entry): as above

For `COc1ccc(-c2nc3cc(C(=O)N/N=C/c4cccc(Br)c4)ccc3[nH]2)cc1` [Compound 8m, (E)-N'-(3-bromobenzylidene)-2-(4-methoxyphenyl)-1H-benzo[d]imidazole-5-carbohydrazide], the melting point (usually the temperature of the solid-liquid transition) was greater than 250 °C. Inhibition in data set [1] (IC50, yeast α-glucosidase) was half-maximal at 97 ± 4.4 µM (IC50).
Taken in the same sequence, the figures for `COc1ccc(-c2nc3cc(C(=O)N/N=C/c4cccc(Oc5ccccc5)c4)ccc3[nH]2)cc1` [Compound 8e, (E)-2-(4-methoxyphenyl)-N'-(3-phenoxybenzylidene)-1H-benzo[d]imidazole-5-carbohydrazide] were greater than 250 °C and 127 ± 6.5 µM.
As to `COc1ccc(-c2nc3cc(C(=O)N/N=C/c4cccc(O)c4)ccc3[nH]2)cc1` [Compound 8f, (E)-N'-(3-hydroxybenzylidene)-2-(4-methoxyphenyl)-1H-benzo[d]imidazole-5-carbohydrazide], the IC50 (commonly the midpoint of a concentration-inhibition curve) in data set [1] (IC50, yeast α-glucosidase) was 181 ± 8.5 µM.
`COc1ccc(-c2nc3cc(C(=O)N/N=C/c4ccccc4)ccc3[nH]2)cc1` [Compound 8a, (E)-N'-benzylidene-2-(4-methoxyphenyl)-1H-benzo[d]imidazole-5-carbohydrazide] yielded a melting point greater than 250 °C. The compound also gave a 50% inhibitory concentration (IC50) in data set [1] (IC50, yeast α-glucosidase) of 70.6 ± 6.8 µM. The “cytotoxicity (MTT)” value with MCF-7 is “non-cytotoxic”. Also, the “cytotoxicity (MTT)” value in the data set on HDF is given as “non-cytotoxic”.
The compound `COc1ccc(-c2nc3cc(C(=O)N/N=C/c4cccc(F)c4)ccc3[nH]2)cc1` [Compound 8i, (E)-N'-(3-fluorobenzylidene)-2-(4-methoxyphenyl)-1H-benzo[d]imidazole-5-carbohydrazide] showed a melting point greater than 250 °C. In addition, in data set [1] (IC50, yeast α-glucosidase), the IC50 was 88.1 ± 6 µM.
The corresponding values for `COc1ccc(-c2nc3cc(C(=O)N/N=C/c4ccc(F)cc4)ccc3[nH]2)cc1` [Compound 8j, (E)-N'-(4-fluorobenzylidene)-2-(4-methoxyphenyl)-1H-benzo[d]imidazole-5-carbohydrazide] are greater than 250 °C and 84.1 ± 4.5 µM.
`COc1ccc(-c2nc3cc(C(=O)N/N=C/c4ccccc4F)ccc3[nH]2)cc1` [Compound 8h, (E)-N'-(2-fluorobenzylidene)-2-(4-methoxyphenyl)-1H-benzo[d]imidazole-5-carbohydrazide]: in data set [1] (IC50, yeast α-glucosidase), the IC50 was determined as 69 ± 4 µM. Also, the “cytotoxicity (MTT)” value in the data set on MCF-7 and in the data set on HDF was “non-cytotoxic” throughout.
For the compound `COc1ccc(-c2nc3cc(C(=O)N/N=C/c4cc5c(cc4[N+](=O)[O-])OCO5)ccc3[nH]2)cc1` [Compound 8o, (E)-2-(4-methoxyphenyl)-N'-((6-nitrobenzo[d][1,3]dioxol-5-yl)methylene)-1H-benzo[d]imidazole-5-carbohydrazide], the melting point was greater than 250 °C. In data set [1] (IC50, yeast α-glucosidase), this compound had an IC50 of 123 ± 6.1 µM.
With `COc1ccc(-c2nc3cc(C(=O)N/N=C/c4ccc([N+](=O)[O-])cc4)ccc3[nH]2)cc1` [Compound 8n, (E)-2-(4-methoxyphenyl)-N'-(4-nitrobenzylidene)-1H-benzo[d]imidazole-5-carbohydrazide], the melting point is greater than 250 °C. The same compound came in with an IC50 in data set [1] (IC50, yeast α-glucosidase) of 112 ± 5.7 µM.
As to `COc1ccc(-c2nc3cc(C(=O)N/N=C/c4ccc(O)c(OC)c4)ccc3[nH]2)cc1` [Compound 8g, (E)-N'-(4-hydroxy-3-methoxybenzylidene)-2-(4-methoxyphenyl)-1H-benzo[d]imidazole-5-carbohydrazide], the melting point is greater than 250 °C. Also, in data set [1] (yeast α-glucosidase, read-out: IC50), the IC50 turned out to be 287 ± 7.4 µM.
`COc1ccc(-c2nc3cc(C(=O)N/N=C/c4cccs4)ccc3[nH]2)cc1` [Compound 8p, (E)-2-(4-methoxyphenyl)-N'-(thiophen-2-ylmethylene)-1H-benzo[d]imidazole-5-carbohydrazide] registered a melting point greater than 250 °C. Also, the IC50 in data set [1] (IC50, yeast α-glucosidase) is 60.1 ± 3.6 µM. The type of inhibition result at α-glucosidase (Lineweaver–Burk plot) is “competitive inhibitor”. Also, the Ki (usually a dissociation constant, usually derived from enzyme kinetics or from competition with a known ligand) at α-glucosidase (secondary plot of Km versus inhibitor concentration) was 60 µM. Moreover, in the data set with MCF-7, the “cytotoxicity (MTT)” value is recorded as “non-cytotoxic”. For the same compound, in the data set with HDF, the “cytotoxicity (MTT)” value is given as “non-cytotoxic”.
Compound `COc1ccc(/C=N/NC(=O)c2ccc3[nH]c(-c4ccc(OC)cc4)nc3c2)cc1` [Compound 8c, (E)-N'-(4-methoxybenzylidene)-2-(4-methoxyphenyl)-1H-benzo[d]imidazole-5-carbohydrazide] had a melting point greater than 250 °C. In data set [1] (IC50, yeast α-glucosidase), this compound showed an IC50 of 110 ± 5.5 µM.
Compound `COc1ccc(-c2nc3cc(C(=O)N/N=C/c4ccc(C)cc4)ccc3[nH]2)cc1` [Compound 8b, (E)-2-(4-methoxyphenyl)-N'-(4-methylbenzylidene)-1H-benzo[d]imidazole-5-carbohydrazide] showed a melting point greater than 250 °C. Also, in data set [1] (IC50, yeast α-glucosidase), half-maximal inhibition (IC50) was put at 102 ± 5.6 µM.
The corresponding values for `COc1ccc(-c2nc3cc(C(=O)N/N=C/c4ccccc4Cl)ccc3[nH]2)cc1` [Compound 8k, (E)-N'-(2-chlorobenzylidene)-2-(4-methoxyphenyl)-1H-benzo[d]imidazole-5-carbohydrazide] are greater than 250 °C and 90 ± 7.5 µM.
Regarding `COc1ccc(-c2nc3cc(C(=O)N/N=C/c4cc(OC)c(OC)c(OC)c4)ccc3[nH]2)cc1` [Compound 8d, (E)-2-(4-methoxyphenyl)-N'-(3,4,5-trimethoxybenzylidene)-1H-benzo[d]imidazole-5-carbohydrazide], the “inhibitory activity against α-glucosidase (in words)” value in data set [1] (yeast α-glucosidase) was “inactive”.
`COc1ccc(-c2nc3cc(C(=O)N/N=C/c4ccc(Cl)cc4)ccc3[nH]2)cc1` [Compound 8l, (E)-N'-(4-chlorobenzylidene)-2-(4-methoxyphenyl)-1H-benzo[d]imidazole-5-carbohydrazide] displayed a melting point greater than 250 °C. For the same compound, in data set [1] (IC50, yeast α-glucosidase), the IC50 was 103 ± 5.5 µM.
